Measured values taken from US8487001B2, “Medium-chain length fatty acids, glycerides and analogues as neutrophil survival and activation factors” (ProMetic BioSciences Inc., priority 2001, dated 2013).
Entries after “also recorded” stand apart in the source; their conditions may differ.

Assays:
bone marrow cells = experiment: In vivo chemoprotection: bone marrow cell count; settings: for effect on bone marrow cell count, post-treatment: post-treatment per o.s. on day 1, 2, 3 and 4
Procedure: (§1) To examine the immunoprotective effect of MCT or other compounds, mice were pre-treated orally at day-3, -2 and -1 or treated intravenously at day 0 with the test compound. Mice were sacrificed at day +5 by cardiac puncture and cervical dislocation. Then, cell suspensions were prepared from thymus, spleen and bone marrow as follow.
(§2) Tissues were crushed in PBS buffer and contaminating erythrocytes were lysed in ACK buffer (155 mM NH4Cl, 12 mM NaHCO3, 0.1 mM EDTA, pH 7.3) for 5 minutes. Cells were then collected by centrifugation and washed three times in PBS and resuspended in tissue culture medium. Cells were counted on a hemacytometer.
(§3) Chemoprotection studies were performed as described in example 16 except that mice were (post)-treated with MCT, sodium caprylate, sodium caprate or capric acid per o.s. on day 1, 2, 3 and 4.

spleen cells = experiment: In vivo chemoprotection: spleen cell count
Procedure: as §1, §2, §3

blood cell subsets = experiment: Blood immunophenotyping (flow cytometry of cell surface markers); type: in vivo, C57BL/6 mice; settings: CY (200 mg/kg) immunosuppressed mice; for Blood Immunophenotyping: LY5−TCR− cell subset (relative percentage): Table 14
Procedure: (§4) Female, 6- to 8-week old, C57BL/6 mice were pre-treated on day -3, -2 and -1 per o.s. or intravenously at day 0 with different concentrations of MCT. Immunophenotyping was also performed on immunosuppressed animals. […] Mice were sacrificed on day 5 by cardiac puncture. Blood and spleens were collected and cell suspensions prepared and erythrocytes lysed in ACK buffer (155 mM NH4Cl, 12 mM NaHCO3, 0.1 mM EDTA, pH 7.3) for 5 minutes. The cells were washed three times in PBS, pH 7.4 and resuspended in tissue culture medium. The cells were then incubated for 45 minutes on ice with fluorescein isothiocyanate (FITC) or phycoerythrin (PE) conjugated cell surface marker according to the manufacturer's (Gibco/BRL, Cedarlane, Boehringer Mannheim) recommendation. The cells were then washed in PBS, fixed with 1% paraformaldehyde and analyzed with a Coulter XL flow cytometer. Analysis of the cell subsets was undertaken by determination of standard cell surface markers which were as follows: TCR (T-cell receptor), CD4 (T helper), CD8 (T cytotoxic/suppressor), CD11b (macrophage), NK (NK cells) and Ly5 (B-cells). Bone marrow cells were obtained as described in example 15. Cells were stained by a 45 minutes incubation of FITC or PE conjugated cell surface marker according to the manufacturer's recommendation. The cells were then washed in PBS, fixed with 1% paraformaldehyde and analyzed with a Coulter XL flow cytometer. Analysis of the cell subsets was undertaken by determination of standard cell surface markers which were as follows: CD34 (hematopoietic progenitor cells), CD41 (platelets, megakaryocytes), CD13 (myelomonocytic stem cells, myelocytes, promonocytes) and CD38 (lymphoid stem cells, pro-B, pre-B).

spleen cell subsets = experiment: Spleen immunophenotyping (flow cytometry of cell surface markers); type: in vivo, C57BL/6 mice; settings: CY (200 mg/kg) immunosuppressed mice
Procedure: as §4

bone marrow cell subsets = experiment: Bone marrow immunophenotyping (CD34, CD13, CD41, CD38); type: in vivo, C57BL/6 mice; settings: for Bone marrow immunophenotyping: CY-treated mice, test substances compared to cyclophosphamide alone; for % Cells CD13+ (bone marrow) / % Cells CD34+ (bone marrow) / % Cells CD38+ (bone marrow) / % Cells CD41+ (bone marrow): Table 15, CY (200 mg/kg) immunosuppressed mice, CY + test substance (Cyclophosphamide line = CY alone)
Procedure: as §4
The effect of MCT, sodium caprylate, sodium caprate on bone marrow immunophenotyping was assessed by the protocol described in example 26.

[1] = CY-treated mice, protocol of example 16 (pre-treatment)
[2] = Table 9, CY-immunosuppressed mice, CY + test compound 6.25 μMole (CY line = CY alone)
[3] = Table 7, CY-treated mice, CY + test compound 6.25 μMole pre-treatment (CY line = CY alone)
[4] = Table 5, CY-treated mice, CY + test compound (CY line = CY alone), protocol of example 16
[5] = Table 11, CY + capric acid 3.125 μMole post-treatment per o.s. day 1, 2, 3 and 4
[6] = Table 11, CY + capric acid 6.25 μMole post-treatment per o.s. day 1, 2, 3 and 4
[7] = Table 11, CY + capric acid 12.5 μMole post-treatment per o.s. day 1, 2, 3 and 4
[8] = Table 17, CY-treated mice, CY + test compound (CY line = CY alone), protocol of example 16
[9] = Table 10, CY-treated mice, post-treatment per o.s. on day 1, 2, 3 and 4 with test substance 12.5 μM (CY line = CY alone)
[10] = Table 8, CY-immunosuppressed mice, CY + test compound 6.25 μM (CY line = CY alone)
[11] = Table 6, CY-treated mice, CY + test compound (CY line = CY alone), protocol of example 16
[12] = Table 16, CY-treated mice, CY + test compound (CY line = CY alone), protocol of example 16

## CCCCCC(=O)OCC(COC(=O)CCCCC)OC(=O)CCCCC [tricaproin]
Bone marrow cells; [1]
  effect on bone marrow cell count compared to cyclophosphamide treated mice: weak (not significant) activity
Bone marrow cells; [2]
  Bone Marrow # Cells (×10^6): 29 ± 4.1 ×10^6
Spleen cells; [1]
  effect on spleen cell count compared to cyclophosphamide treated mice: weak (not significant) activity
Spleen cells; [2]
  Spleen # Cells (×10^6): 37 ± 8.7 ×10^6

## CCCCCCCCC(=O)O [nonanoic acid]
Bone marrow cells; [1]
  effect on bone marrow cell count compared to cyclophosphamide treated mice: weak (not significant) activity on immune cell counts
Bone marrow cells; [3]
  Bone Marrow # Cells (×10^6): 36 ± 5.6 ×10^6
Spleen cells; [1]
  effect on spleen cell count compared to cyclophosphamide treated mice: weak (not significant) activity on immune cell counts
Spleen cells; [3]
  Spleen # Cells (×10^6): 28 ± 4 ×10^6

## CCCCCCCCCC(=O)OCC [ethyl caprate]
Bone marrow cells; Table 18, CY-treated mice, CY + test compound (CY line = CY alone), protocol of example 16
  Bone Marrow # Cells (×10^6): 27.5 ± 4.4 ×10^6

## CCCCCCCCCC(=O)O [capric acid]
Bone marrow cells; CY-treated mice
  effect on bone marrow cell count, post-treatment: weak increase in bone marrow cell count
Bone marrow cells; [1]
  effect on bone marrow cell count compared to cyclophosphamide treated mice: significantly enhances the bone marrow cell counts
Bone marrow cells; [4]
  Bone Marrow # Cells (×10^6): 32 ± 2.71 ×10^6
Bone marrow cells; [5]
  Bone Marrow # Cells (×10^6): 37 ± 7.8 ×10^6
Bone marrow cells; [6]
  Bone Marrow # Cells (×10^6): 38 ± 4.6 ×10^6
Bone marrow cells; [7]
  Bone Marrow # Cells (×10^6): 38 ± 7.4 ×10^6
Spleen cells; CY-treated mice, post-treatment per o.s. on day 1, 2, 3 and 4
  effect on spleen cell count, post-treatment: significant increase in spleen cell count
Spleen cells; [1]
  effect on spleen cell count compared to cyclophosphamide treated mice: No significant effect
Spleen cells; [4]
  Spleen # Cells (×10^6): 27 ± 8.4 ×10^6
Spleen cells; [5]
  Spleen # Cells (×10^6): 31 ± 8.7 ×10^6
Spleen cells; [6]
  Spleen # Cells (×10^6): 25 ± 6.3 ×10^6
Spleen cells; [7]
  Spleen # Cells (×10^6): 36 ± 7.8 ×10^6
Blood cell subsets
  Blood Immunophenotyping: effect compared to cyclophosphamide alone (words): significantly increase the relative percentage of LY5-TCR- on blood
Blood cell subsets; compound 6.25 μM
  Blood Immunophenotyping: LY5−TCR− cell subset (relative percentage): 61.52 ± 5.16
Blood cell subsets; compound 12.5 μM
  Blood Immunophenotyping: LY5−TCR− cell subset (relative percentage): 70.79 ± 3.95
Spleen cell subsets
  Spleen Immunophenotyping: effect compared to cyclophosphamide alone (words): no significant effect compared to cyclophosphamide alone
Spleen cell subsets; listed as Capric acid
  Spleen Immunophenotyping: effect compared to cyclophosphamide alone (words): No significant effect

## CCCCCCCCCC(=O)OC1C(C)OC(OC)C(OC(=O)CCCCCCCCC)C1OC(=O)CCCCCCCCC [α-methyl tridecanoyl-L-fucopyranose, α-O-Methyl-2,3,4,—O,O,O-tridecanoyl-L-fucopyranose]
Bone marrow cells; [8]
  Bone Marrow # Cells (×10^6): 30.4 ± 9.3 ×10^6
Bone marrow cells; mouse, in vivo
  effect on bone marrow cell count compared to cyclophosphamide treated mice: lack of activity

## CCCCCCCC(=O)O [caprylic acid]
Bone marrow cells; [4]
  Bone Marrow # Cells (×10^6): 26 ± 3.58 ×10^6
Spleen cells; [1]
  effect on spleen cell count compared to cyclophosphamide treated mice: No significant effect
Spleen cells; [4]
  Spleen # Cells (×10^6): 28 ± 6.4 ×10^6

## CCCCCCCC(=O)[O-].[Na+] [sodium caprylate]
Bone marrow cells; CY-treated mice
  effect on bone marrow cell count, post-treatment: significant increase in bone marrow cell count
Bone marrow cells; [1]
  effect on bone marrow cell count compared to cyclophosphamide treated mice: significant increase in proliferation or protection of bone marrow cell count
Bone marrow cells; [9]
  Bone Marrow # Cells (×10^6): 26 ± 5.33 ×10^6
Spleen cells; [9]
  Spleen # Cells (×10^6): 36 ± 12.5 ×10^6
Bone marrow cell subsets
  Bone marrow immunophenotyping: amplifies the number of CD13+ lineage
  % Cells CD13+ (bone marrow): 4.9 ± 1.2%
  % Cells CD34+ (bone marrow): 11.2 ± 1.3%
  % Cells CD38+ (bone marrow): 36 ± 9.7%
  % Cells CD41+ (bone marrow): 4.6 ± 1.3%

## CCCCCC(=O)[O-].[Na+] [sodium caproate]
Bone marrow cells; [2]
  Bone Marrow # Cells (×10^6): 39 ± 17.9 ×10^6
Bone marrow cells; mouse, in vivo
  effect on bone marrow cell count compared to cyclophosphamide treated mice: weak (not significant) activity
Spleen cells; [2]
  Spleen # Cells (×10^6): 35 ± 10.6 ×10^6
Spleen cells; mouse, in vivo
  effect on spleen cell count compared to cyclophosphamide treated mice: weak (not significant) activity
Blood cell subsets
  Blood Immunophenotyping: effect compared to cyclophosphamide alone (words): significantly increase the relative percentage of LY5-TCR- on blood
Blood cell subsets; compound 6.25 μM
  Blood Immunophenotyping: LY5−TCR− cell subset (relative percentage): 52.43 ± 10.16

## CCCCCCCCCC(=O)[O-].[Na+] [sodium caprate]
Bone marrow cells; CY-treated mice
  effect on bone marrow cell count, post-treatment: significant increase in bone marrow cell count
Bone marrow cells; [1]
  effect on bone marrow cell count compared to cyclophosphamide treated mice: significant increase in proliferation or protection of bone marrow cell count
Bone marrow cells; [9]
  Bone Marrow # Cells (×10^6): 29 ± 4.45 ×10^6
Spleen cells; [9]
  Spleen # Cells (×10^6): 28 ± 6.3 ×10^6
Bone marrow cell subsets
  Bone marrow immunophenotyping: amplifies the number of CD13+ lineage
  % Cells CD13+ (bone marrow): 4.7 ± 1.7%
  % Cells CD34+ (bone marrow): 9.1 ± 3.1%
  % Cells CD38+ (bone marrow): 44.3 ± 22.8%
  % Cells CD41+ (bone marrow): 3.7 ± 0.7%

## CCCCCCCCCCCC(=O)OCC(COC(=O)CCCCCCCCCCC)OC(=O)CCCCCCCCCCC [trilaurin]
Bone marrow cells; [1]
  effect on bone marrow cell count compared to cyclophosphamide treated mice: weak (not significant) activity
Bone marrow cells; [10]
  Bone Marrow # Cells (×10^6): 31 ± 6.8 ×10^6
Spleen cells; [1]
  effect on spleen cell count compared to cyclophosphamide treated mice: weak (not significant) activity
Spleen cells; [10]
  Spleen # Cells (×10^6): 28 ± 19.5 ×10^6
Blood cell subsets
  Blood Immunophenotyping: effect compared to cyclophosphamide alone (words): no significant effect compared to cyclophosphamide alone
Blood cell subsets; listed as Trilaurin
  Blood Immunophenotyping: effect compared to cyclophosphamide alone (words): No significant effect
Spleen cell subsets
  Spleen Immunophenotyping: effect compared to cyclophosphamide alone (words): enhance the relative percentage of CD11+; also recorded: induces a significant increase in the LY5-TCR- and NK+ cell subsets
Spleen cell subsets; Table 14, compound 6.25 μM
  Spleen Immunophenotyping: CD11+ cell subset (relative percentage): 43.94 ± 4.78
  Spleen Immunophenotyping: LY5−TCR− cell subset (relative percentage): 77.86 ± 2.94
  Spleen Immunophenotyping: NK+ cell subset (relative percentage): 17.46 ± 5.80

## CCCCCCCCCC(=O)OCC(COC(=O)CCCCCCCCC)OC(=O)CCCCCCCCC [tricaprin]
Bone marrow cells; [1]
  effect on bone marrow cell count compared to cyclophosphamide treated mice: efficacious in the proliferation or protection of bone marrow cell counts
Bone marrow cells; [11]
  Bone Marrow # Cells (×10^6): 31 ± 3.8 ×10^6
Spleen cells; [1]
  effect on spleen cell count compared to cyclophosphamide treated mice: No significant effect
Spleen cells; [11]
  Spleen # Cells (×10^6): 38 ± 6.8 ×10^6

## CCCCCCCCCCCC(=O)O [lauric acid]
Bone marrow cells; [1]
  effect on bone marrow cell count compared to cyclophosphamide treated mice: Significant increases in proliferation or protection of bone marrow and spleen cell counts
Bone marrow cells; [3]
  Bone Marrow # Cells (×10^6): 42 ± 7.8 ×10^6
Spleen cells; [1]
  effect on spleen cell count compared to cyclophosphamide treated mice: Significant increases in proliferation or protection of bone marrow and spleen cell counts
Spleen cells; [3]
  Spleen # Cells (×10^6): 32 ± 5 ×10^6

## CCCCCCCCCC(=O)NC(COC(=O)CCCCCCCCC)COC(=O)CCCCCCCCC [tridecanoyl serinol, 1,2,3-O,N,O-Tridecanoyl serinol]
Bone marrow cells; [1]
  effect on bone marrow cell count compared to cyclophosphamide treated mice: No significant effect
Bone marrow cells; [12]
  Bone Marrow # Cells (×10^6): 28 ± 4.6 ×10^6
Spleen cells; [1]
  effect on spleen cell count compared to cyclophosphamide treated mice: significantly enhances the spleen cell counts
Spleen cells; [12]
  Spleen # Cells (×10^6): 42 ± 8.4 ×10^6

## CCCCCCCCCC(=O)OC1C(C)OC(OC)C(OC(=O)CCCCCCCCC)C1OC(=O)CCCCCCCCC [β-methyl tridecanoyl-L-fucopyranose, β-O-Methyl-2,3,4,—O,O,O-tridecanoyl-L-fucopyranose]
Bone marrow cells; [8]
  Bone Marrow # Cells (×10^6): 34.6 ± 8.5 ×10^6
Bone marrow cells; mouse, in vivo
  effect on bone marrow cell count compared to cyclophosphamide treated mice: weak (not significant) activity on bone marrow cell counts

## O=c1[nH]cc(F)c(=O)[nH]1 [5-FU, 5-fluorouracil, reference compound]
Bone marrow cells; mouse, in vivo, iv
  effect of cytotoxic drug on bone marrow cell count compared to the control: depressed the bone marrow cell count compared to the control
Spleen cells; mouse, in vivo, iv
  effect of cytotoxic drug on spleen cell count compared to the control: reduce significantly the spleen cell count compared to the control
